The record followed here is PMC12876990, “Targeting secreted PLA2 interactions with EGFR and vimentin to arrest prostate tumour growth” (Cell Death & Disease, 2025).

Square brackets hold non-standard residues; d marks the D form. Peptide text beside a SMILES is read from it. 2Nal = N[C@@H](Cc1ccc2ccccc2c1)C(=O)O

The nature of data set [1]: Toxicity and serum enzyme levels in PCa xenograft model mice. Format: in vivo. On the procedure: Fig. 1 Derived from the structure of hGIIA, cF and c2 are orally absorbed, cell permeable and non-toxic. a Structure of hGIIA showing disulphide bonds (yellow) and the location of the peptide sequence ^70FLSYK^74 (cyan), which was cyclised to produce pentapeptide cF, then modified to produce c2. b Plasma concentrations of tritiated cF (red) and c2 (blue) following subcutaneous (sc) administration (circles) or oral (po) administration (squares) at 5 mg/kg to BALB/c mice (mean ± SE, n = 4 per time point). Tissue concentrations of c cF and d c2 following sc administration determined in the liver (blue) and kidney (brown) (mean ± SE). Dashed lines indicate estimated background levels of tritium in tissues due to tissue blood content (10% of peak plasma concentration). e–i Following po administration of c2 at 100 mg/kg to male rats (n = 5 per group), levels of c2 were measured in e plasma, f kidney, g faeces, h urine and i liver at timepoints indicated via LCMS/MS (mean ± SE). j Serum enzyme levels of markers of kidney function (creatinine), liver damage (AST and ALT) and heart damage (CK) in PCa xenograft model mice in response to treatment with vehicle (po, 3 x weekly for 6.1 ± 1.6 weeks), cF (10 mg/kg, po, 3 x weekly for 5.4 ± 0.9 weeks) or c2 (10 mg/kg, po, 3 x weekly for 4.8 ± 0.8 weeks) (n = 4, mean ± SE). Data were obtained by the South Eastern Area Laboratory Services Pathology Laboratory at Prince of Wales Hospital, Randwick, Australia. k PCa cell lines LNCaP, PC-3, and DU145 cells incubated with 100 µM c2 (green) for 24 hours with DAPI (blue), scale bar 10 µm (representative cells of n = 3 biological replicates, 5 cells per replicate).
A key failing of previous enzymatic inhibitors of hGIIA was toxicity, resulting in increased incidence of myocardial infarction in a phase III clinical trial. Thus, the toxicity profile of novel hGIIA inhibitors is critically important in evaluating new inhibitors. […] Extensive histopathology was performed on all animals in the control and high dose groups sacrificed on day 29, with no difference observed between the treated groups and the vehicle control group by any measure. […] In light of the toxicity associated with the myocardial infarction study, data from this c2 toxicity study relevant to heart toxicity are shown in Table 1. Heart wet weight was not affected by either low or high dose relative to vehicle, indicating the compound has no significant pro-hypertrophy effect at these doses. The lack of effect of c2 on gross necropsy or histopathology scores also supports the preclinical safety of the compound in the heart. Importantly, c2 has no effect on serum potassium levels or the Na/K ratio, since hypokalemia (low potassium) is highly arrythmogenic. […] It is of interest also that serum alanine transaminase is unaffected by c2 at the doses tested, since this marker was raised three-fold over the normal range in 6.3-fold more patients on varespladib than placebo in the VISTA acute coronary syndrome trial of this sPLA2 inhibitor [13].

Data set [2] can be described thus: 28-day oral toxicity study: histopathology. Format: in vivo, male Sprague Dawley rats. As to conditions: Gr 3, 20 mg/kg vs Gr 1. On the procedure: organs. Tissues and carcas ses were placed in 10% formalin. The tissues to be processed for histopathological examinations were fixed for at least 48 hours prior to cassette preparation.
The organ weights and gross pathology changes a re included in a spreadsheet as an appendix to the report (Appendix C Study Data Spreadsheets).
3.12. Tissue proces sing / Slide preparation
The tissues were placed in labelled cassette s and placed in an automated tissue processor and taken through several stages of alcohol dehydration, solvent clearing and wax infiltration.
Infiltrated tissues were embedded in wax blo ck s, which were sectioned on a microtome at between 4 and 6 µm. Sections were placed on pre-labelled glass slides and stained with haematoxylin and eo sin (H&E). Stained section s were dehydrated, then solvent cl eared and […]
Histopathological examinations were p erformed on all animals in the vehicle control and high dose treated groups (main study) on the following tissues/organs: adrenal glands, bone marrow, brain, epididymis, heart, kidney, liver, lung, lymph node: mesenteric, prostate, seminal v esicle s with coagulating glands, small and l arge intesti ne (including Peyer’s patches), spinal cord, spleen, stomach, thymus, thyroid gland, trachea, testes and urinary bladder. Slides were evaluated for histology change s under light microscopy at a magnification of 100 to 1000 times.
Individual histopathology results and a summar y are attached a s an app endix to the report (Appendix E Histopathology).
3.14. Statistical analyses
Clinical observations, detailed clinical observations, functional observations, blood and urine analyses and histopathology were summarised by descriptive analysis.
Statistical analyses, consisting of unpaired t-tests, were performed on measured variables: percentage body weight gain s, food consumption and organ weights as a percentage of body weight. A significance level of P < 0.05 was used for all tests.
St Geo rge C lini c al S chool

For data set [3] the following is noted: rat, in vivo, 20 mg/kg.
Procedure: The calculated volumetric do se wa s administered to each rat orally by gav age, using a plastic
intragastric cannula attached to a 3 mL syringe.
Two dose level s of 1 and 20 mg/kg of the te st it em susp ension were administered to each rat
every 3 days (total 10 do ses) for 28 days. This c orresponded to volumetric dose of 10.09 and
10.23 mL/kg. The volumetric dose administered to each animal was calculated on Days 1, 8, 15
Feed consumption was monitored weekly over the 28-day experimental period in all groups
and was continued for a further 2 weeks in the recovery groups (42-day experimental
period). Feed intake was monitored by providing a known mass of feed to each cage and
subtracting the mas s remaining at the end of th e weekly period. Animals were fa sted
overnight on either Day 28 (main groups) or Day 42 (recovery groups).
The nature of data set [4]: Pharmacokinetics of tritiated cF and c2 in BALB/c mice. Format: in vivo. On the procedure: All animal studies were performed according to the guidelines for the ethical use of animals published by the National Health and Medical Research Council of Australia. Mouse pharmacokinetic studies were conducted with approval from the Garvan Institute Animal Ethics Committee (approval #02/21). cF and c2 were radioactively labelled with tritium by catalytic saturation of peptide analogues containing dehydroleucine (Sibtech Inc.), yielding high specific activity (50–60 Ci/mmol) peptides. Their identity was confirmed by three separate analytical methods prior to delivery. Mice (BALB/c, n = 4 per timepoint) were administered a single dose of peptide by the routes and times indicated. Animals were then exsanguinated by cardiac puncture under halothane anaesthesia followed by cervical dislocation. Tissues and plasma were stored at −80 °C prior to analysis. For plasma, a known volume of plasma was added to liquid scintillant (Ultima Gold, Perkin Elmer). For tissues, a known amount of tissue (50–100 mg) was incubated in NaOH (1 mL, 1 M) overnight at room temperature. The solutions were then bleached with disodium EDTA (100 µl, 0.1%) and hydrogen peroxide (300 µl, 30%) and incubated at 50 °C for one hour. The peptide content of plasma and tissues was determined by liquid scintillation counting. The stability of the peptides following administration to animals was evaluated by thin-layer chromatography of tissue-extracted peptide relative to peptide prior to injection (Fig. S2c).

For `CC(C)C[C@@H]1NC(=O)[C@H](Cc2ccc3ccccc3c2)NC(=O)[C@H](CCCNC(=N)N)NC(=O)[C@H](Cc2ccc3ccccc3c2)NC(=O)[C@H](CO)NC1=O` [c2, cyclo-((2-Nal)-Leu-Ser-(2-Nal)-Arg)] (cyclo([2Nal]LS[2Nal]R)), the “serum creatinine, aspartate aminotransferase, alanine aminotransferase, creatine kinase levels” value in data set [1] (10 mg/kg po thrice weekly) was “no significant changes”. The damage to organs entry in data set [1] (10 mg/kg thrice weekly for 10 weeks) is “no observable damage to organs”. Besides, the gross toxicity result in data set [1] (max dosages of 10 mg/kg thrice weekly for 10 weeks) is “No gross toxicity”. Further, in data set [2], the “histopathology: large intestine: colon” value was “No treatment-related differences”, the “histopathology: liver” value is reported as “No treatment-related differences”, the “histopathology: small intestine: ileum” value is “No treatment-related differences” and the “histopathology: stomach” value is listed as “No treatment-related differences”. The molecule further returned a Mean feed intake/cage in data set [3] of 5180 g. Moreover, the “oral bioavailability (in words)” value in data set [4] (sc and po administration) is listed as “orally bioavailable”. In data set [4] (tritiated peptide 5 mg/kg, po vs sc, at 16 hours), the “oral bioavailability relative to sc delivery (AUC analysis)” value is given as ~ 10%.
